# Test results published in patent US7850984B2, “Protection of the female reproductive system from natural and artificial insults” (The General Hospital Corporation, priority 2000, dated 2010).
# Legend:
# oocytes [1] = assay: In vitro oocyte culture with or without doxorubicin, apoptosis; assay type: cell-based, mouse; settings: 200 nM DXR, 24 hours, wild-type versus ASMase-deficient oocytes
# Description: In addition to assessments of cellular morphology and caspase activation, some oocytes in each group are processed for DNA cleavage analysis as an endpoint for cell death using the Trevigen Comet Assay kit.
# Female mice (43 days of age post-partum; Charles River Laboratories, Wilmington, Mass.) are superovulated with 10 IU of equine chorionic gonadotropin (eCG orPMSG) followed by 10 IU of human chorionic gonadotropin (hCG) 48 h later. Mature oocytes are collected from the oviducts 16 h after hCG injection. Cumulus enclosed oocytes are denuded by a 1-min incubation in 80 IU/ml of hyaluronidase, followed by three washes with culture medium. The medium used for all culture experiments is human tubal fluid (Irvine Scientific, Santa Ana, Calif.) supplemented with 0.5% bovine serum albumin (BSA).
# Oocytes are cultured in 0.1 ml drops of culture medium (8-10 oocytes/drop) under paraffin oil and incubated with or without DXR (200 nM) and/or fumonisin-B1, sphingosine-1-phosphate or benzyloxycarbonyl-Val-Ala-Asp-fluoromethylketone (zVAD-FMK) for 24 h at 37° C. in a humidified atmosphere of 5% CO2-95% air. […] The percentage of oocytes that go through apoptosis out of the total number of oocytes cultured per drop in each experiment is then determined, and all experiments are independently repeated four to ten times with different mice.
# oocytes [2] = settings: female mouse oocytes; Perez et al. (1997); cited from earlier work
# [3] = system: germ cells of wild-type fetal ovaries (e13.5); assay: Fetal ovary culture without hormonal support, germ cell survival; assay type: cell-based, mouse; settings: wild-type fetal ovaries, 72 hours in vitro without hormonal support; FB1 5-500 μM; S1P increasing concentrations
# Description: To determine the basis of the extensive oocyte hyperplasia in ASMase −/− neonates, fetal ovaries are harvested from wild-type and mutant mice at embryonic day 13.5 (e13.5) for in vitro culture as a model to recapitulate the events surrounding germline death that occurs as a normal component of female gametogenesis. A time-dependent activation of programmed cell death is observed in the germline of wild-type fetal ovaries cultured without hormonal support for up to 72 hours (FIG. 2A). […] These findings indicate that there exists an ovarian-intrinsic cell death defect in the ASMase-deficient mouse, and point to enhanced survival of the developing germline during oogenesis as the mechanism underlying the enlarged oocyte pool seen in mutant females at birth.
# Equivalent levels of in vitro germ cell survival are obtained by either ASMase gene knockout (FIG. 2A) or by S1P treatment (FIG. 2B).
# oocytes [4] = assay: Microinjection of recombinant protein into single oocytes, apoptosis; assay type: cell-based, mouse; settings: wild-type oocytes; ASMase: six picoliters of a 1 mg/ml stock
# Description: Human recombinant acid sphingomyelinase is synthesized and purified as described by He et al., Biochim. Biophys. Acta 1432, 251 (1999), incorporated herein by reference in its entirety. Six picoliters of vehicle or of a 1 mg/ml stock of the enzyme are microinjected into single oocytes using a Zeiss Axiovert 135 inverted microscope equipped with Narishige micromanipulators and a PLI-100 pico-injector. Oocytes that survive the microinjection procedure (>75%) are then cultured and assessed for the occurrence of apoptosis. Furthermore, microinjection of human recombinant Bax protein into single oocytes and assessments of apoptosis are made as described by Perez, et al. (1997) id. Microinjection of human recombinant Bax protein into oocytes duplicates the pro-apoptotic effects of both human recombinant ASMase microinjection and anti-cancer drug treatment (FIG. 3E).
molecule,measurement,setting,value
"COc1cccc2c1C(=O)c1c(O)c3c(c(O)c1C2=O)C[C@@](O)(C(=O)CO)C[C@@H]3O[C@H]1C[C@H](N)[C@H](O)[C@H](C)O1 [DXR, doxorubicin, reference compound]",apoptotic event in oocytes,oocytes [1],"elicited in wild-type, but not ASMase-deficient, oocytes"
same,oocyte cell death on in vitro exposure,oocytes [2],"undergo a type of cell death, referred to as apoptosis"
"CCCC[C@@H](C)[C@@H](OC(=O)C[C@@H](CC(=O)O)C(=O)O)[C@H](C[C@@H](C)C[C@H](O)CCCC[C@@H](O)C[C@H](O)[C@H](C)N)OC(=O)C[C@@H](CC(=O)O)C(=O)O [FB1, fumonisin-B1, reference compound]",germ cell survival / germ cell apoptosis in cultured fetal ovaries,[3],does not alter survival rates in the female germline
human recombinant Bax: human recombinant Bax protein microinjected into single oocytes,apoptosis after microinjection versus vehicle-injected oocytes,oocytes [4],significant (P<0.05) increase in apoptosis
"human recombinant ASMase: human recombinant acid sphingomyelinase enzyme microinjected into single oocytes (protein, UniProt P17405 47-631, looked up) Sphingomyelin …: LALSDSRVLWAPAEAHPLSPQGHPARLHRIVPRLRDVFGWGNLTCPICKGLFTAINLGLKKEPNVARVGSVAIKLCNLLKIAPPAVCQSIVHLFEDDMVEVWRRSVLSPSEACGLLLGSTCGHWDIFSSWNISLPTVPKPPPKPPSPPAPGAPVSRILFLTDLHWDHDYLEGTDPDCADPLCCRRGSGLPPASRPGAGYWGEYSKCDLPLRTLESLLSGLGPAGPFDMVYWTGDIPAHDVWHQTRQDQLRALTTVTALVRKFLGPVPVYPAVGNHESTPVNSFPPPFIEGNHSSRWLYEAMAKAWEPWLPAEALRTLRIGGFYALSPYPGLRLISLNMNFCSRENFWLLINSTDPAGQLQWLVGELQAAEDRGDKVHIIGHIPPGHCLKSWSWNYYRIVARYENTLAAQFFGHTHVDEFEVFYDEETLSRPLAVAFLAPSATTYIGLNPGYRVYQIDGNYSGSSHVVLDHETYILNLTQANIPGAIPHWQLLYRARETYGLPNTLPTAWHNLVYRMRGDMQLFQTFWFLYHKGHPPSEPCGTPCRLATLCAQLSARADSPALCRHLMPDGSLPEAQSLWPRPLFC",apoptosis after microinjection versus vehicle-injected oocytes,oocytes [4],significant (P<0.05) increase in apoptosis
